Each compound was assayed against BACE1 (Homo sapiens (Human), UniProt P56817) (assay: Test Example 1: BACE1 inhibition by FRET (MCA substrate); IC50 and Ki). Settings: read-out: Test Example 1 IC50.
BACE1, sequence (P56817 75-416): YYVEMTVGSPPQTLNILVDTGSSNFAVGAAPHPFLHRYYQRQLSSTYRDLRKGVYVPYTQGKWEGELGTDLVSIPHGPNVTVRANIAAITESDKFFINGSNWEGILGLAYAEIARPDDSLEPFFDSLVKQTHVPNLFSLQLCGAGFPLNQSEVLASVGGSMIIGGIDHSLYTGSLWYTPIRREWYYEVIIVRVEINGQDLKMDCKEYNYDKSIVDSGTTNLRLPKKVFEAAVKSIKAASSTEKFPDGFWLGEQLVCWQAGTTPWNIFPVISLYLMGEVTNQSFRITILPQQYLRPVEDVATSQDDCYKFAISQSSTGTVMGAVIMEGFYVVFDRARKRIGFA

Structure (SMILES)	IC50 [nM]
CC1(C)Oc2ccc(NC(=O)c3ccc(F)cn3)cc2C2(COC(N)=N2)C12COC2 (stereo not shown) [Example 28]	154
CC1(C)Oc2ccc(NC(=O)c3ncc(Cl)cc3F)cc2C2(COC(N)=N2)C12COC2 (stereo not shown) [Example 30]	97.5

Same assay, conditions: read-out: Test Example 1 IC50; FRET, MCA substrate 3 μM, BACE1 65 nM, pH 4.4

IC50 [nM]	Structure (SMILES)
15600	CCCC1Oc2ccc(Br)cc2C2(COC(N)=N2)C12COC2 (single isomer, unassigned) [RP 11a]
17400	CCCC1Oc2ccc(Br)cc2C2(COC(N)=N2)C12COC2 (single isomer, unassigned) [RP 11b]

Structure (SMILES)	IC50 [nM]
NC1=NC2(CO1)c1cc(NC(=O)c3ccc(Cl)cn3)ccc1OCC21CC1 (stereo not shown) [RP 32]	418

The compounds below were run on Aβ production in SK-N-BE(2) neuroblastoma cells (assay: Test Example 3: Aβ production inhibition in cell (Aβ40 ELISA, SK-N-BE(2))). Settings: Homo sapiens, SKNBE2, 6 h, read-out: Test Example 3 IC50.

Structure (SMILES)	IC50 [nM]
CC1(C)Oc2ccc(NC(=O)c3ccc(F)cn3)cc2C2(COC(N)=N2)C12COC2 (stereo not shown) [Example 28]	19
CC1(C)Oc2ccc(NC(=O)c3ncc(Cl)cc3F)cc2C2(COC(N)=N2)C12COC2 (stereo not shown) [Example 30]	2.3

Same assay, conditions: Homo sapiens, SKNBE2, 6 h, read-out: Test Example 3 IC50, SK-N-BE(2) cells, 6 hours, Aβ40 ELISA normalized by viability

Structure (SMILES)	IC50 [nM]
CC1(C)Oc2ccc(NC(=O)c3ccc(Cl)cn3)cc2[C@@]2(COC(N)=N2)C12COC2 [Example 218, N-[(4S)-2-amino-2′,2′-dimethyldispiro[1,3-oxazole-4,4′-chromene-3′,3″-oxetan]-6′-yl]-5-chloropyridine-2-carboxamide]	0.78
Cc1cncc(-c2ccc3c(c2)C2(COC(N)=N2)C2(COC2)C2(CCC2)O3)c1 (stereo not shown) [RP 75, 6′-(5-methylpyridin-3-yl)trispiro[cyclobutane-1,2′-chromene-4′,4″-[1,3]oxazole-3′,3′″-oxetan]-2″-amine]	1100
CC#Cc1cncc(-c2ccc3c(c2)C2(COC(N)=N2)C2(CCC2)CO3)c1 (stereo not shown) [RP 113]	470
NC1=NC2(CO1)c1cc(-c3cncnc3)ccc1OC1(CCC1)C21COC1 (stereo not shown) [RP 5]	590
CCCC1Oc2ccc(-c3cncnc3)cc2C2(COC(N)=N2)C12COC2 (stereo not shown) [RP 91]	340
CC1(C)Oc2ccc(-c3cc(F)cnc3Cl)cc2C2(COC(N)=N2)C12COC2 (stereo not shown) [RP 153]	130
N#Cc1cccc(-c2ccc3c(c2)C2(COC(N)=N2)C2(COC2)C2(CCC2)O3)c1 (stereo not shown) [RP 128]	1500
CC#Cc1cc(-c2ccc3c(c2)C2(COC(N)=N2)C2(COC2)CO3)ccn1 (stereo not shown) [RP 20]	580
CC1(C)Oc2ccc(-c3cc(F)cc(Cl)c3)cc2C2(COC(N)=N2)C12COC2 (stereo not shown) [RP 146, 6′-(3-chloro-5-fluorophenyl)-2′,2′-dimethyldispiro[1,3-oxazole-4,4′-chromene-3′,3″-oxetan]-2-amine]	210
NC1=NC2(CO1)c1cc(-c3cccnc3)ccc1OC1(CCC1)C21COC1 (stereo not shown) [RP 209]	830
CC1(C)Oc2ccc(-c3cnc4[nH]ccc4c3)cc2C2(COC(N)=N2)C12COC2 (stereo not shown) [RP 168]	310
NC1=NC2(CO1)c1cc(-c3cccc(F)c3)ccc1OC1(CCC1)C21COC1 (stereo not shown) [RP 125]	580
COc1cncc(-c2ccc3c(c2)C2(COC(N)=N2)C2(COC2)C2(CCC2)O3)c1 (stereo not shown) [RP 72]	68
NC1=NC2(COC1)c1cc(-c3cncnc3)ccc1OCC21CC1 (stereo not shown) [RP 215, 6′-(pyrimidin-5-yl)-6″H-dispiro[cyclopropane-1,3′-chromene-4′,3″-[1,4]oxazin]-5″-amine]	240
COc1cccc(-c2ccc3c(c2)C2(COC(N)=N2)C2(COC2)C2(CCC2)O3)c1F (stereo not shown) [RP 137]	830
CC#Cc1cncc(-c2ccc3c(c2)C2(COC(N)=N2)C2(COC2)C(CCC(F)(F)F)O3)c1 (stereo not shown) [RP 96]	22
CCC(CC)Cc1ccc2c(c1)C1(COC(N)=N1)C1(COC1)C1(CCC1)O2 (stereo not shown) [RP 47]	1400
CC1(C)Oc2ccc(-c3ccc4c(c3)OCO4)cc2C2(COC(N)=N2)C12COC2 (stereo not shown) [RP 182]	2500
NC1=NC2(CO1)c1cc(-c3cncnc3)ccc1OC(CC1CC1)C21COC1 (stereo not shown) [RP 204]	240
NC1=NC2(CO1)c1cc(-c3cncc(OCC(F)(F)C(F)F)c3)ccc1OCC21CC1 (stereo not shown) [RP 64]	2300

Structure (SMILES)	IC50 [nM]
CC1(C)Oc2ccc(-c3cc(F)ccn3)cc2C2(COC(N)=N2)C12COC2 (stereo not shown) [RP 149]	1100
CC(C)CC1Oc2ccc(-c3cncnc3)cc2C2(COC(N)=N2)C12COC2 (stereo not shown) [RP 93]	370
NC1=NC2(c3cc(-c4cncnc4)ccc3OCC23CC3)c2cccc(F)c21 (stereo not shown) [RP 199]	240
COc1cccc(-c2ccc3c(c2)C2(COC(N)=N2)C2(COC2)C2(CCC2)O3)c1 (stereo not shown) [RP 126]	1200
COc1cccnc1Nc1ccc2c(c1)C1(COC(N)=N1)C1(COC1)CO2 (stereo not shown) [RP 26]	69
NC1=NC2(CO1)c1cc(Nc3ncccc3Cl)ccc1OCC21COC1 (stereo not shown) [RP 43, 6′-(3-chloropyridin-2-yl)aminodispiro[1,3-oxazole-4,4′-chromene-3′,3″-oxetane]-2-amine]	1400
N#Cc1ncccc1-c1ccc2c(c1)C1(COC(N)=N1)C1(COC1)C1(CCC1)O2 (stereo not shown) [RP 115, 3-(2″-aminotrispiro[cyclobutane-1,2′-chromene-4′,4″-[1,3]oxazole-3′,3′″-oxetan]-6′-yl)pyridine-2-carbonitrile]	1100
COc1cnc(C(=O)Nc2ccc3c(c2)[C@@]2(COC(N)=N2)C2(CC2)C(C)(C)O3)cn1 [Example 223, N-[(4′R)-2″-amino-2′,2′-dimethyldispiro[cyclopropane-1,3′-chromene-4′,4″-[1,3]oxazol]-6′-yl]-5-me thoxypyrazine-2-carboxamide]	3.1
COC/C=C/c1ccc2c(c1)C1(COC(N)=N1)C1(COC1)C(C)(C)O2 (stereo not shown) [RP 181]	820
CC1(C)Oc2ccc(-c3cccnc3F)cc2C2(COC(N)=N2)C12COC2 (stereo not shown) [RP 82]	36
COc1cncc(-c2ccc3c(c2)C2(COC(N)=N2)C2(CC2)CO3)c1 (stereo not shown) [RP 105]	340
NC1=NC2(CO1)c1cc(-c3cncnc3)ccc1OCC21CCCO1 (stereo not shown) [RP 97]	2600
C#Cc1cncc(-c2ccc3c(c2)C2(COC(N)=N2)C2(COC2)CO3)c1 (stereo not shown) [RP 23]	900
COc1cncc(-c2ccc3c(c2)[C@@]2(COC(N)=N2)C2(COC2)[C@@H](C)O3)c1 (racemic) [RP 81]	510
CC1(C)Oc2ccc(-c3ccc4nonc4c3)cc2C2(COC(N)=N2)C12COC2 (stereo not shown) [RP 178]	810
Cc1cccc(-c2ccc3c(c2)C2(COC(N)=N2)C2(COC2)C2(CCC2)O3)c1 (stereo not shown) [RP 127]	1800
N#Cc1cncc(-c2ccc3c(c2)C2(COC(N)=N2)C2(COC2)C2(CCC2)O3)c1 (stereo not shown) [RP 120]	2300
CCOc1cc(F)cc(-c2ccc3c(c2)C2(COC(N)=N2)C2(COC2)C2(CCC2)O3)c1 (stereo not shown) [RP 133]	2800
CC1(C)Oc2ccc(NC(=O)c3cnc(C(F)F)cn3)cc2[C@@]2(COC(N)=N2)C12CC2 [Example 224, N-[(4′R)-2″-amino-2′,2′-dimethyldispiro[cyclopropane-1,3′-chromene-4′,4″-[1,3]oxazol]-6′-yl]-5-(difluoromethyl)pyrazine-2-carboxamide]	0.63
NC1=NC2(CO1)c1cc(-c3cncc(OCC(F)(F)F)c3)ccc1OCC21CC1 (stereo not shown) [RP 58]	180

Structure (SMILES)	IC50 [nM]
NC1=NC2(CO1)c1cc(NC(=O)c3ccc(F)cn3)ccc1OCC21CC1 (stereo not shown) [RP 31, N-(2″-aminodispiro[cyclopropane-1,3′-chromene-4′,4″-[1,3]oxazol]-6′-yl)-5-fluoropyridine-2-carboxamide]	61
NC1=NC2(CO1)c1cc(-c3cncnc3)ccc1OCC21CC1 (stereo not shown) [RP 100]	250
NC1=NC2(CO1)c1cc(-c3cncnc3)ccc1OC(Cc1ccccc1)C21COC1 (stereo not shown) [RP 200]	26
CC1(C)Oc2ccc(-c3cccc4[nH]ncc34)cc2C2(COC(N)=N2)C12COC2 (stereo not shown) [RP 176]	850
NC1=NC2(CO1)c1cc(-c3cncc(OC(F)F)c3)ccc1OCC21CC1 (stereo not shown) [RP 60]	160
COc1ncc(Cl)cc1-c1ccc2c(c1)C1(COC(N)=N1)C1(COC1)C(C)(C)O2 (stereo not shown) [RP 155]	630
NC1=NC2(CO1)c1cc(NC(=O)c3ncc(Br)cn3)ccc1OCC21CC1 (stereo not shown) [RP 189]	43
CC1(C)Oc2ccc(-c3cc(Cl)cnc3Cl)cc2C2(COC(N)=N2)C12COC2 (stereo not shown) [RP 152]	110
C[C@@H]1Oc2ccc(-c3cccnc3F)cc2[C@@]2(COC(N)=N2)C12COC2 (racemic) [RP 79]	450
CC1(C)Oc2ccc(-c3cc(C#N)ccc3F)cc2C2(COC(N)=N2)C12COC2 (stereo not shown) [RP 170]	400
COc1ccnc(-c2ccc3c(c2)C2(COC(N)=N2)C2(COC2)C(C)(C)O3)c1 (stereo not shown) [RP 65, 6′-(4-methoxypyridin-2-yl)-2′,2′-dimethyldispiro[1,3-oxazole-4,4′-chromene-3′,3″-oxetan]-2-amine]	49
CC1(C)Oc2ccc(-c3ccc4[nH]ccc4c3)cc2C2(COC(N)=N2)C12COC2 (stereo not shown) [RP 174, 6′-(1H-indol-5-yl)-2′,2′-dimethyldispiro[1,3-oxazole-4,4′-chromene-3′,3″-oxetan]-2-amine]	3400
CC1(C)Oc2ccc(-c3cncc(Cl)c3)cc2C2(COC(N)=N2)C12COC2 (stereo not shown) [RP 173]	73
CC1(C)Oc2ccc(NC(=O)c3ccc(Br)cn3)cc2[C@@]2(COC(N)=N2)C12COC2 [Example 219]	2.2
COc1cc(-c2ccc3c(c2)C2(COC(N)=N2)C2(COC2)C2(CCC2)O3)c(F)cn1 (stereo not shown) [RP 122]	1100
CC1(C)Oc2ccc(-c3cccc(C(F)(F)F)c3)cc2C2(COC(N)=N2)C12COC2 (stereo not shown) [RP 141]	1300
N#C/C=C/c1cccc(-c2ccc3c(c2)C2(COC(N)=N2)C2(COC2)C2(CCC2)O3)c1 (stereo not shown) [RP 132]	1200
CC1(C)Oc2ccc(-c3cncc(Cl)n3)cc2C2(COC(N)=N2)C12COC2 (stereo not shown) [RP 150]	450
NC1=NC2(CO1)c1cc(-c3cncnc3)ccc1OC1(CCCC1)C21COC1 (stereo not shown) [RP 85]	77

Each compound was assayed against hERG potassium channel (Homo sapiens (Human), UniProt Q12809) (assay: Test Example 5: hERG inhibition, automated patch clamp in hERG-expressing CHO cells). Settings: read-out: Test Example 5 hERG IC50, QPatch, room temperature.
hERG potassium channel, sequence (Q12809 whole entry): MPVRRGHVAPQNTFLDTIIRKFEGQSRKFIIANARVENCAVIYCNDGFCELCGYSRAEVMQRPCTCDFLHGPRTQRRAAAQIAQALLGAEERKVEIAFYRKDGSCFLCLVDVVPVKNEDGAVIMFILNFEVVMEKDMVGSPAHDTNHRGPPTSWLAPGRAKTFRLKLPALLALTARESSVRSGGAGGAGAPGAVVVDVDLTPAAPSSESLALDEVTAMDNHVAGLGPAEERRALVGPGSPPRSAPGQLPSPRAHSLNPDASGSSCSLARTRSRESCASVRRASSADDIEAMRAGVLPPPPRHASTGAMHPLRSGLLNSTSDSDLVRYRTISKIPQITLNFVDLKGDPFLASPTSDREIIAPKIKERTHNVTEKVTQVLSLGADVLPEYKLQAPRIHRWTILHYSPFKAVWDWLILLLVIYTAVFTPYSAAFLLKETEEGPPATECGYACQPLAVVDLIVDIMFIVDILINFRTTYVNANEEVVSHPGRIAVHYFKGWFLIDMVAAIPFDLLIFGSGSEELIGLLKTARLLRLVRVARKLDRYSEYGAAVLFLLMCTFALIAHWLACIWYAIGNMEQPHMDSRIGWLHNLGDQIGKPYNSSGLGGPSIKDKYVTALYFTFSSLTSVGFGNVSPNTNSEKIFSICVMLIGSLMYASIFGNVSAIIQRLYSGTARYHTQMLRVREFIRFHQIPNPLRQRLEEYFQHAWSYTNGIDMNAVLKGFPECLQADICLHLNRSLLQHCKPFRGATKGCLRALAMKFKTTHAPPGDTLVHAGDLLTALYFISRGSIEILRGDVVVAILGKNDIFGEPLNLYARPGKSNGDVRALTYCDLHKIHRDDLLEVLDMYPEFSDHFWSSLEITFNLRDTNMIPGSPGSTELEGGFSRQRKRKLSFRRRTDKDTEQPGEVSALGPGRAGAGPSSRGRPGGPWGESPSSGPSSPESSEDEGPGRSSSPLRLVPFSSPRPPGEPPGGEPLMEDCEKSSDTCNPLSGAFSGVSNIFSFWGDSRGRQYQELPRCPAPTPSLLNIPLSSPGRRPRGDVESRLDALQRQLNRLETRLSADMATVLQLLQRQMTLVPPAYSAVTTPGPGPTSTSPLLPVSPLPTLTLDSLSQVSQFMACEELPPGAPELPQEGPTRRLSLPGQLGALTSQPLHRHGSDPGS

Structure (SMILES)	IC50 [nM]
CC1(C)Oc2ccc(NC(=O)c3ccc(C#N)cn3)cc2C2(COC(N)=N2)C12COC2 (stereo not shown) [Example 197]	> 10000
